Source: the NIST ThermoML archive (doi:10.1016/j.jct.2015.12.017)

Assays:
[1] = for molar entropy: 101.33 kPa
[2] = Molar enthalpy of transition or fusion

O=P([O-])([O-])[O-].[Co+2].[Cs+] [cesium cobalt(II) phosphate]
[1]
Details	molar entropy [J/K/mol]
5 K, Crystal 4, Vacuum adiabatic calorimetry	0.4864
6 K, Crystal 4, Vacuum adiabatic calorimetry	0.7965
7 K, Crystal 4, Vacuum adiabatic calorimetry	1.172
8 K, Crystal 4, Vacuum adiabatic calorimetry	1.621
9 K, Crystal 4, Vacuum adiabatic calorimetry	2.062
10 K, Crystal 4, Vacuum adiabatic calorimetry	2.528
15 K, Crystal 4, Vacuum adiabatic calorimetry	5.047
20 K, Crystal 4, Vacuum adiabatic calorimetry	8.117
25 K, Crystal 4, Vacuum adiabatic calorimetry	11.62
30 K, Crystal 4, Vacuum adiabatic calorimetry	15.46
35 K, Crystal 4, Vacuum adiabatic calorimetry	19.44
40 K, Crystal 4, Vacuum adiabatic calorimetry	23.53
45 K, Crystal 4, Vacuum adiabatic calorimetry	27.67
50 K, Crystal 4, Vacuum adiabatic calorimetry	31.83
60 K, Crystal 4, Vacuum adiabatic calorimetry	40.01
70 K, Crystal 4, Vacuum adiabatic calorimetry	47.95
80 K, Crystal 4, Vacuum adiabatic calorimetry	55.65
90 K, Crystal 4, Vacuum adiabatic calorimetry	63.08
100 K, Crystal 4, Vacuum adiabatic calorimetry	70.28
110 K, Crystal 4, Vacuum adiabatic calorimetry	77.27
120 K, Crystal 4, Vacuum adiabatic calorimetry	84.06
130 K, Crystal 4, Vacuum adiabatic calorimetry	90.54
140 K, Crystal 4, Vacuum adiabatic calorimetry	96.95
150 K, Crystal 4, Vacuum adiabatic calorimetry	103.18
160 K, Crystal 4, Vacuum adiabatic calorimetry	109.17
170 K, Crystal 4, Vacuum adiabatic calorimetry	115.16
180 K, Crystal 4, Vacuum adiabatic calorimetry	120.89
190 K, Crystal 4, Vacuum adiabatic calorimetry	126.55
200 K, Crystal 4, Vacuum adiabatic calorimetry	132.03
210 K, Crystal 4, Vacuum adiabatic calorimetry	137.36
220 K, Crystal 4, Vacuum adiabatic calorimetry	142.59
230 K, Crystal 4, Vacuum adiabatic calorimetry	147.75
240 K, Crystal 4, Vacuum adiabatic calorimetry	152.74
250 K, Crystal 4, Vacuum adiabatic calorimetry	157.64
260 K, Crystal 4, Vacuum adiabatic calorimetry	162.55
270 K, Crystal 4, Vacuum adiabatic calorimetry	167.29
273.15 K, Crystal 4, Vacuum adiabatic calorimetry	168.78
280 K, Crystal 4, Vacuum adiabatic calorimetry	171.94
290 K, Crystal 4, Vacuum adiabatic calorimetry	176.52
298.15 K, Crystal 4, Vacuum adiabatic calorimetry	180.17
300 K, Crystal 4, Vacuum adiabatic calorimetry	181.01
310 K, Crystal 4, Vacuum adiabatic calorimetry	185.5
313.4 K, Crystal 3, Vacuum adiabatic calorimetry	186.91
313.4 K, Crystal 4, Vacuum adiabatic calorimetry	186.83
320 K, Crystal 3, Vacuum adiabatic calorimetry	190.07
330 K, Crystal 3, Vacuum adiabatic calorimetry	194.48
340 K, Crystal 3, Vacuum adiabatic calorimetry	198.8
350 K, Crystal 3, Small sample (50 mg) DSC	203.12
360 K, Crystal 3, Small sample (50 mg) DSC	207.45
370 K, Crystal 3, Small sample (50 mg) DSC	211.69
380 K, Crystal 3, Small sample (50 mg) DSC	215.76
390 K, Crystal 3, Small sample (50 mg) DSC	219.92
400 K, Crystal 3, Small sample (50 mg) DSC	223.91
410 K, Crystal 3, Small sample (50 mg) DSC	227.9
420 K, Crystal 3, Small sample (50 mg) DSC	231.81
430 K, Crystal 3, Small sample (50 mg) DSC	235.63
440 K, Crystal 3, Small sample (50 mg) DSC	239.46
450 K, Crystal 3, Small sample (50 mg) DSC	243.2
460 K, Crystal 3, Small sample (50 mg) DSC	246.94
470 K, Crystal 3, Small sample (50 mg) DSC	250.6
480 K, Crystal 3, Small sample (50 mg) DSC	254.26
486.9 K, Crystal 2, Small sample (50 mg) DSC	257.5
486.9 K, Crystal 3, Small sample (50 mg) DSC	256.83
490 K, Crystal 2, Small sample (50 mg) DSC	258.58
500 K, Crystal 2, Small sample (50 mg) DSC	262.16
510 K, Crystal 2, Small sample (50 mg) DSC	265.65
514.4 K, Crystal 1, Small sample (50 mg) DSC	267.98
514.4 K, Crystal 2, Small sample (50 mg) DSC	267.06
520 K, Crystal 1, Small sample (50 mg) DSC	270.05
530 K, Crystal 1, Small sample (50 mg) DSC	273.38
540 K, Crystal 1, Small sample (50 mg) DSC	276.71
550 K, Crystal 1, Small sample (50 mg) DSC	279.95
560 K, Crystal 1, Small sample (50 mg) DSC	283.19
570 K, Crystal 1, Small sample (50 mg) DSC	286.27
580 K, Crystal 1, Small sample (50 mg) DSC	289.34
590 K, Crystal 1, Small sample (50 mg) DSC	292.42
600 K, Crystal 1, Small sample (50 mg) DSC	295.41
610 K, Crystal 1, Small sample (50 mg) DSC	298.32
620 K, Crystal 1, Small sample (50 mg) DSC	301.15
630 K, Crystal 1, Small sample (50 mg) DSC	303.98
640 K, Crystal 1, Small sample (50 mg) DSC	306.8
650 K, Crystal 1, Small sample (50 mg) DSC	309.55

Details	Molar enthalpy of transition or fusion, Crystal 2, DSC [kcal/mol]	Molar enthalpy of transition or fusion, Crystal 3, DSC [kcal/mol]	Molar enthalpy of transition or fusion, Crystal 4, Adiabatic calorimetry [kcal/mol]	Triple point temperature, Crystal 2, DSC [K]	Triple point temperature, Crystal 3, DSC [K]	Triple point temperature, Crystal 4, Adiabatic calorimetry [K]
[1]	–	–	–	514.4	486.9	313.4
[2]	0.113	0.0824	0.00728	–	–	–
